Assay results reported in patent publication US20240208992A1, “MACROCYCLES AS CFTR MODULATORS” (Idorsia Pharmaceuticals Ltd, priority 2021, published 2024).

Target: human F508del-CFTR (Homo sapiens, UniProt P13569, DEL508-508)
Experiment: F508del-CFTR cell surface expression (corrector activity), DiscoveRx ß-galactosidase complementation chemiluminescence assay in recombinant U2OS cell line;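 note: U2OS cells co-expressing ProLink-tagged F508del-CFTR and a membrane-anchored enzyme acceptor, where more surface CFTR restores β-galactosidase activity measured by chemiluminescence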
Conditions: for EC50: EC50, F508del-CFTR cell surface expression; for Emax: U2OS
[1] = U2OS cells, 16h compound incubation, geomean values
[2] = in relation to Emax of corrector lumacaftor (=100%), arithmetic mean values
[3] = U2OS cell line, 16h compound incubation, geomean values
[4] = in relation to the Emax of the corrector lumacaftor (=100%), U2OS cell line, 16h compound incubation, arithmetic mean values
[5] = U2OS cells, 16h compound incubation, geomean of several measurements
[6] = in relation to the Emax of the corrector lumacaftor (=100%), U2OS cells, 16h compound incubation, arithmetic mean

Chain of human F508del-CFTR (P13569 with tags, fused parts or gaps DEL508-508): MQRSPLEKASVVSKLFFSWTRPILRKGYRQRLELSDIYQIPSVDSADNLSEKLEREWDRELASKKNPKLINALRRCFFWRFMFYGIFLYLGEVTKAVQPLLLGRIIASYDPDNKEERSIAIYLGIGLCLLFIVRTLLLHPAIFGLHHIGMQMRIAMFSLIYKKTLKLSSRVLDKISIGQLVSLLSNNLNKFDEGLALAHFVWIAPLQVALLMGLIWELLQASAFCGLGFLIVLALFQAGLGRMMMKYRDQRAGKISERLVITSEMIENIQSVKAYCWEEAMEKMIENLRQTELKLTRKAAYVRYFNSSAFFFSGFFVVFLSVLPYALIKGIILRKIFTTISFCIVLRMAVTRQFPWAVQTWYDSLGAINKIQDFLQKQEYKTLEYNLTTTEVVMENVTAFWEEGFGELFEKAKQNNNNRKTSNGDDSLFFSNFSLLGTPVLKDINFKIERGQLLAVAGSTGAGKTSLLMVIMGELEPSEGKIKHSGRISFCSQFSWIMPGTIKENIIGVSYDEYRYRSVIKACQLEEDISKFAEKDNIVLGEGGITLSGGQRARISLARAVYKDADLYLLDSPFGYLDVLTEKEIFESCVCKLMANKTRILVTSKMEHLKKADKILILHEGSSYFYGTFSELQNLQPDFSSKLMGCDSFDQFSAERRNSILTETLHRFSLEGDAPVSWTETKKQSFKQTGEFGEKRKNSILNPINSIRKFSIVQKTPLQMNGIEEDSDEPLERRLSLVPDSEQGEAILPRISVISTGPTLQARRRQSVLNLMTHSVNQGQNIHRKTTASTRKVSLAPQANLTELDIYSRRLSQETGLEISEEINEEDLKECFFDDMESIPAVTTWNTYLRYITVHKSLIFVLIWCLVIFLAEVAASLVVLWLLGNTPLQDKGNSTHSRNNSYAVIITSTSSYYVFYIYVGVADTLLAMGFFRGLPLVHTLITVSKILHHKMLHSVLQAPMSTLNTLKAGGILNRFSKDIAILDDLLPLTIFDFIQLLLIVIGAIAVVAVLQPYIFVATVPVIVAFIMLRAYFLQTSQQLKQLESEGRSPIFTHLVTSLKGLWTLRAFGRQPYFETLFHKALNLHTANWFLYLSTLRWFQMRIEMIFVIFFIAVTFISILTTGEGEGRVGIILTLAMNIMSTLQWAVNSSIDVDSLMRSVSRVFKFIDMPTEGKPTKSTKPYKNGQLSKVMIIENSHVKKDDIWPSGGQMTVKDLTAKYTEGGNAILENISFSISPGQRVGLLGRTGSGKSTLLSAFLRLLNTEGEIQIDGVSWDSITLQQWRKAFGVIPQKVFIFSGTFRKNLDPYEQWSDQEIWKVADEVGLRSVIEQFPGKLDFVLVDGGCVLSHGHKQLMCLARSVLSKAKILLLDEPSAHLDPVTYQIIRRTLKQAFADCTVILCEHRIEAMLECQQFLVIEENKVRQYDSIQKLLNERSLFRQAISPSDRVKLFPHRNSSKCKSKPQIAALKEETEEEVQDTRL

| SMILES | EC50 [3] [nM] | Emax [4] [%] | other results |
| --- | --- | --- | --- |
| Cc1cc(CCNC(=O)[C@@H]2CC(=O)N(C)[C@@H](CC(C)C)C(=O)N(C)[C@H](CC(C)C)C(=O)N[C@H](Cc3ccccc3)COc3cnc4ccccc4c3C(=O)N2)on1 [Example 548, (3S,7S,10R,13R)-13-benzyl-7,10-diisobutyl-6,9-dimethyl-N-(2-(3-methylisoxazol-5-yl)ethyl)-1,5,8,11-tetraoxo-1,2,3,4,5,6,7,8,9,10,11,12,13,14-tetradecahydro-[1]oxa[4,7,10,14]tetraazacycloheptadecino[17,16-c]quinoline-3-carboxamide] |  |  | EC50 [1]: 106 nM; Emax [2]: 326% |
| CC(C)C[C@H]1C(=O)N(C)CC(=O)N[C@H](Cc2ccccc2)COc2cccc(Cl)c2C(=O)N[C@H](C(=O)NCCc2ccc3c(c2)OCO3)CC(=O)N1C [Example 279, (3R,9S,13S)-N-(2-(benzo[d][1,3]dioxol-5-yl)ethyl)-3-benzyl-16-chloro-9-isobutyl-7,10-dimethyl-5,8,11,15-tetraoxo-2,3,4,5,6,7,8,9,10,11,12,13,14,15-tetradecahydrobenzo[p][1]oxa[4,7,10,14]tetraazacycloheptadecine-13-carboxamide] | 643 | 112 |  |
| COc1cccc(CCNC(=O)[C@@H]2CC(=O)N(C)[C@@H](CC(C)C)C(=O)N3CCN(C(=O)OCC(Cl)(Cl)Cl)C[C@@H]3C(=O)N[C@H](Cc3ccccc3)COc3ccc4ccccc4c3C(=O)N2)c1 [Example 369, 2,2,2-trichloroethyl (4aR,7R,18S,22S)-7-benzyl-22-isobutyl-18-((3-methoxyphenethyl)carbamoyl)-21-methyl-5,16,20,23-tetraoxo-1,2,4,4a,5,6,7,8,16,17,18,19,20,21,22,23-hexadecahydro-3H-naphtho[1,2-p]pyrazino[2,1-f][1]oxa[4,7,10,14]tetraazacycloheptadecine-3-carboxylate] | 107 | 243 |  |
| COc1nc(C)cc2c1C(=O)N[C@H](C(=O)NC[C@@H](O)c1ccccc1)CC(=O)N(C)[C@@H](CC(C)C)C(=O)N(C)[C@H](CC(C)C)C(=O)N[C@H](Cc1ccccc1)CO2 [Example 828, (3R,6R,9S,13S)-3-benzyl-N-((S)-2-hydroxy-2-phenylethyl)-6,9-diisobutyl-16-methoxy-7,10,18-trimethyl-5,8,11,15-tetraoxo-2,3,4,5,6,7,8,9,10,11,12,13,14,15-tetradecahydropyrido[3,4-p][1]oxa[4,7,10,14]tetraazacycloheptadecine-13-carboxamide] |  |  | EC50 [5]: 299 nM; Emax [6]: 317% |
| CN1C(=O)C[C@@H](C(=O)NCCc2ccc3c(c2)OCO3)NC(=O)c2c(ccc3ccccc23)OC[C@@H](Cc2ccccc2)NC(=O)CN(CC[C@@H]2CCCCO2)C(=O)[C@@H]1CC1CC1 [Example 358, (3S,7S,13R)-N-(2-(benzo[d][1,3]dioxol-5-yl)ethyl)-13-benzyl-7-(cyclopropylmethyl)-6-methyl-1,5,8,11-tetraoxo-9-(2-((S)-tetrahydro-2H-pyran-2-yl)ethyl)-1,2,3,4,5,6,7,8,9,10,11,12,13,14-tetradecahydronaphtho[1,2-p][1]oxa[4,7,10,14]tetraazacycloheptadecine-3-carboxamide] | 411 | 171 |  |
| COc1cc(CCNC(=O)[C@@H]2CC(=O)N(C)[C@@H](CC(C)C)C(=O)N(C)[C@H](Cc3nc(C(F)(F)F)no3)C(=O)N[C@H](Cc3ccccc3)COc3c[n+]([O-])c4ccc(F)cc4c3C(=O)N2)on1 [Example 981, (3S,7S,10R,13R)-13-benzyl-20-fluoro-7-isobutyl-3-((2-(3-methoxyisoxazol-5-yl)ethyl)carbamoyl)-6,9-dimethyl-1,5,8,11-tetraoxo-10-((3-(trifluoromethyl)-1,2,4-oxadiazol-5-yl)methyl)-1,2,3,4,5,6,7,8,9,10,11,12,13,14-tetradecahydro-[1]oxa[4,7,10,14]tetraazacycloheptadecino[17,16-c]quinoline 17-oxide] |  |  | EC50 [5]: 133 nM; Emax [6]: 448% |
| CC(C)C[C@H]1C(=O)N(C)[C@H](Cc2nc(-c3ccc(F)cn3)no2)C(=O)N[C@H](Cc2ccccc2)COc2cnc3ccc(F)cc3c2C(=O)N[C@H](C(=O)NCCn2ncc(C3CC3)n2)CC(=O)N1C [Example 837, (3S,7S,10R,13R)-13-benzyl-N-(2-(4-cyclopropyl-2H-1,2,3-triazol-2-yl)ethyl)-20-fluoro-10-((3-(5-fluoropyridin-2-yl)-1,2,4-oxadiazol-5-yl)methyl)-7-isobutyl-6,9-dimethyl-1,5,8,11-tetraoxo-1,2,3,4,5,6,7,8,9,10,11,12,13,14-tetradecahydro-[1]oxa[4,7,10,14]tetraazacycloheptadecino[17,16-c]quinoline-3-carboxamide] |  |  | EC50 [5]: 198 nM; Emax [6]: 358% |
| [2H]C([2H])([2H])Oc1nc(C)cc2c1C(=O)N[C@H](C(=O)NCCc1cc(C3CC3)on1)CC(=O)N(C)[C@@H](CC(C)C)C(=O)N1CCCC[C@@H]1C(=O)N[C@H](Cc1ccccc1)CO2 [Example 664, (7S,11S,17aR,20R)-20-benzyl-N-(2-(5-cyclopropylisoxazol-3-yl)ethyl)-11-isobutyl-4-(methoxy-d3)-2,10-dimethyl-5,9,12,18-tetraoxo-5,6,7,8,9,10,11,12,15,16,17,17a,18,19,20,21-hexadecahydro-14H-dipyrido[2,1-f:3′,4′-p][1]oxa[4,7,10,14]tetraazacycloheptadecine-7-carboxamide] |  |  | EC50 [1]: 231 nM; Emax [2]: 291% |
| COc1cccc(CCNC(=O)[C@@H]2CC(=O)N(C)[C@@H](CC(C)C)C(=O)N(C)CC(=O)N[C@H](Cc3ccccc3)COc3cc(OC)c(OC)cc3C(=O)N2)c1 [Example 195, (3R,9S,13S)-3-benzyl-9-isobutyl-17,18-dimethoxy-N-(3-methoxyphenethyl)-7,10-dimethyl-5,8,11,15-tetraoxo-2,3,4,5,6,7,8,9,10,11,12,13,14,15-tetradecahydrobenzo[p][1]oxa[4,7,10,14]tetraazacycloheptadecine-13-carboxamide] | 889 | 202 |  |
| COc1ccc2c(c1)C(=O)N[C@H](C(=O)NCCc1ccc3c(c1)OCO3)CC(=O)N(C)[C@@H](CC(C)C)C(=O)N(CCC1CCCCC1)CC(=O)N[C@H](Cc1ccccc1)CO2 [Example 248, (3R,9S,13S)-N-(2-(benzo[d][1,3]dioxol-5-yl)ethyl)-3-benzyl-7-(2-cyclohexylethyl)-9-isobutyl-17-methoxy-10-methyl-5,8,11,15-tetraoxo-2,3,4,5,6,7,8,9,10,11,12,13,14,15-tetradecahydrobenzo[p][1]oxa[4,7,10,14]tetraazacycloheptadecine-13-carboxamide] | 106 | 191 |  |
| CC(C)C[C@H]1C(=O)N(CCC2CCC3(CCOCC3)CO2)CC(=O)N[C@H](Cc2ccccc2)COc2ccc3ccccc3c2C(=O)N[C@H](C(=O)NCCc2ccc3c(c2)OCO3)CC(=O)N1C (stereo partly drawn) [Example 334, (3S,7S,13R)-9-(2-(2,9-dioxaspiro[5.5]undecan-3-yl)ethyl)-N-(2-(benzo[d][1,3]dioxol-5-yl)ethyl)-13-benzyl-7-isobutyl-6-methyl-1,5,8,11-tetraoxo-1,2,3,4,5,6,7,8,9,10,11,12,13,14-tetradecahydronaphtho[1,2-p][1]oxa[4,7,10,14]tetraazacycloheptadecine-3-carboxamide] | 323 | 232 |  |
